Measured values reported in patent US20090042912A1, “DIPHENYLIMIDAZOLYL COMPOUNDS AS INHIBITORS OF beta-SECRETASE” (Wyeth, priority 2004, published 2009).
pIC50: −log10 of the molar value. Where two headings read alike, the source gives them in different places.

What was measured:
[1] = biological target: T1, human BACE2 (Homo sapiens, UniProt Q9Y5Z0); assay: Fluorescent kinetic assay for human recombinant BACE 2 (WABC-6 peptide substrate); assay type: biochemical; settings: for inhibition at 25 µM: read-out: BACE2. % inhibition; for IC50: 1.5 nM enzyme, 25 μM substrate, pH 4.5, room temperature
T1 sequence (Q9Y5Z0 63-518): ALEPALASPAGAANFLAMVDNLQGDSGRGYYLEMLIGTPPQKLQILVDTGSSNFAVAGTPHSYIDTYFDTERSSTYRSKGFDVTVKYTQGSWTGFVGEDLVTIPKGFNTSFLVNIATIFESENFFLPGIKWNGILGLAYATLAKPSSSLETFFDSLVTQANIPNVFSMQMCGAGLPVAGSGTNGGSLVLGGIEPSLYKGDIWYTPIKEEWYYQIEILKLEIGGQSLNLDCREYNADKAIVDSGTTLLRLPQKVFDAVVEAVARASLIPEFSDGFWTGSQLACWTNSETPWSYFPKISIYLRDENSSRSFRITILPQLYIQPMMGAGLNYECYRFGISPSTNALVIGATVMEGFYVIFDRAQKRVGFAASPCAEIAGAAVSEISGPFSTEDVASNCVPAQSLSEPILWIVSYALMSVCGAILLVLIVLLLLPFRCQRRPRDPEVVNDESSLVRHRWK
Experimental: Fluorescent Kinetic Assay for Human Recombinant BACE 2
This assay is used to provide kinetic and selectivity parameters for the analyses of the tested compounds.
Temperature: room temperature.
Dilution and Mixing Steps: Total Reaction Volume.: 100 μL • 1.
Readings at λex 320 nm, λem 420 nm are taken every 40-sec for 30 min at room temperature and to determine the linear slope for substrate cleavage rate (vi).

[2] = biological target: human BACE1 (Homo sapiens, UniProt P56817); assay: Fluorescent kinetic assay, inhibition of BACE1 (WABC-6 peptide substrate); assay type: biochemical; settings: for IC50: read-out: IC50 (μM) BACE1.
human BACE1, sequence (P56817 46-501): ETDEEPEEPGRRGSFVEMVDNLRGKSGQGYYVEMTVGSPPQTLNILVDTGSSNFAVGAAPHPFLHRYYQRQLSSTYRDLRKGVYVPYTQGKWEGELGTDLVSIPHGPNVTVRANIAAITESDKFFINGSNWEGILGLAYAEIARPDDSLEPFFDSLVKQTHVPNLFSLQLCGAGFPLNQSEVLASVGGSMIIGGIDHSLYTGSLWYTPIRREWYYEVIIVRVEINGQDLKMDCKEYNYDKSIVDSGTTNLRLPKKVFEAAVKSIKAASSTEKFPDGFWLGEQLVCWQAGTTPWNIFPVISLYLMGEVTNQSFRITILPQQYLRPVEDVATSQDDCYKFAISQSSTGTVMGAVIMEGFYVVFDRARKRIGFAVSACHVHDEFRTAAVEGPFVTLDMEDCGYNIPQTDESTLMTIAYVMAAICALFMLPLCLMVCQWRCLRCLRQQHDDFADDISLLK
Experimental: Evaluation of the Enzyme Activity of Test Compounds and the Inhibition of hBACE1, MuBACE1 and hBACE2 by Test Compounds
The concentration is determined by absorbance at 354 nm using an extinction coefficient ε of 18172 M^−1cm^−1, The substrate stock is stored in small aliquots at −80° C. [Substrate Stock]=ABS^354 nm*10^6/18172 ([…])
Dilution and mixing steps: total reaction volume: 100 μL • 1. 2× inhibitor dilutions in buffer A (66.7 mM Na-Acetate, pH 4.5, 0.0667% CHAPS) are prepared, • 2. 4× enzyme dilution in buffer A (66.7 mM Na-Acetate, pH 4.5, 0.0667% CHAPS) are prepared, • 3. 100 μM substrate dilution in 1× PBS is prepared, • 4. 50 μL 2× Inhibitor and 25 μL 100 μM substrate are added to each well of 96-well plate (from DYNEX Technologies, VWR #: 11311-046), the immediately 25 μL 4× enzyme are added to the inhibitor and substrate mixer, the fluorescence readings are initiated.
Readings at λex 320 nm and λem 420 nm are taken every 40-sec for 30 min at room temperature to determine the linear slope for substrate cleavage rate (vi).

[3] = 10 nM enzyme, 25 μM substrate, pH 4.5, room temperature

Row | SMILES | inhibition at 25 µM ([1]; at 25 μM) [%] | IC50 [1] [µM] | IC50 [2, 3] [µM] | melting point [°C] | further results
1 | NC1=N[C@](c2ccc(OC(F)(F)F)cc2)(c2cccc(-c3cccnc3F)c2)C2=NCCCN12 (single isomer, unassigned) [Example 30A] | 35 | – | – | – | –
2 | NC1=N[C@@](c2ccc(OC(F)(F)F)cc2)(c2cccc(-c3cccnc3F)c2)C2=NCCCN12 (single isomer, unassigned) [Example 30B] | – | 3.79 | – | – | –
3 | NC1=N[C@](c2ccc(OC(F)(F)F)cc2)(c2cccc(-c3cncnc3)c2)C2=NCCCN12 (single isomer, unassigned) [Example 31A] | – | 10.4 | – | – | –
4 | NC1=N[C@@](c2ccc(OC(F)(F)F)cc2)(c2cccc(-c3cncnc3)c2)C2=NCCCN12 (single isomer, unassigned) [Example 31B] | – | – | – | – | inhibition at 25 µM [1]: 28%
5 | NC1=NC(c2ccc(OC(F)(F)F)cc2)(c2cccc(-c3cncnc3)c2)c2nccn21 (stereo not shown) [Example 5] | 50 | – | 0.23 | – | –
6 | NC1=NC(c2ccc(OC(F)(F)F)cc2)(c2ccc(F)c(-c3cncnc3)c2)C2=NCCCN12 (stereo not shown) [Example 13, 8-{[(4-Fluoro-3-pyrimidin-5-yl)phenyl]-8-[4-(trifluoromethoxy)phenyl]-2,3,4,8-tetrahydroimidazo[1,5-a]pyrimidin-6-yl}amine] | 25 | – | 0.15 | 105 to 115 | –
7 | NC1=NC(c2ccc(OC(F)(F)F)cc2)(c2ccc(F)c(-c3cncc(F)c3)c2)C2=NCCCN12 (stereo not shown) [Example 14, {8-[4-Fluoro-3-(5-fluoropyrimidin-3-yl)phenyl]-8-[4-(trifluoromethoxy)phenyl]-2,3,4,8-tetrahydroimidazo[1,5-a]pyrimidin-6-yl}amine] | – | – | 0.14 | 94 to 105 | inhibition at 25 µM [1]: 65%
8 | NC1=NC(c2ccc(OC(F)(F)F)cc2)(c2ccc(F)c(-c3cccnc3F)c2)C2=NCCCN12 (stereo not shown) [Example 15, 8-[4-fluoro-3-(2-fluoropyridin-3-yl)phenyl]-8-[4-(trifluoromethoxy)phenyl]-2,3,4,8-tetrahydroimidazo[1,5-a]pyrimidin-6-amine] | 44 | – | 0.1 | 99 to 122 | –
9 | NC1=NC(c2ccc(OC(F)(F)F)cc2)(c2cccc(-c3cncnc3)c2)C2=NCCCN12 (stereo not shown) [Example 16, 8-(3-pyrimidin-5-ylphenyl)-8-[4-(trifluoromethoxy)phenyl]-2,3,4,8-tetrahydroimidazo[1,5-a]pyrimidin-6-amine] | – | – | – | 214 to 218 | inhibition at 25 µM [1]: 49%
10 | NC1=NC(c2ccc(OC(F)(F)F)cc2)(c2cccc(-c3cccnc3F)c2)C2=NCCCN12 (stereo not shown) [Example 17, 8-[3-(2-fluoropyridin-3-yl)phenyl]-8-[4-(trifluoromethoxy)phenyl]-2,3,4,8-tetrahydroimidazo[1,5-a]pyrimidin-6-amine] | – | 11.4 | – | 105 to 115 | –
11 | NC1=NC(c2ccc(OC(F)(F)F)cc2)(c2cccc(-c3cncc(F)c3)c2)C2=NCCCN12 (stereo not shown) [Example 19, 8-[3-(5-fluoropyridin-3-yl)phenyl]-8-[4-(trifluoromethoxy)phenyl]-2,3,4,8-tetrahydroimidazo[1,5-a]pyrimidin-6-amine] | – | 3.22 | 0.08 | 112 to 118 | –
12 | COc1ccc(C2(c3cccc(-c4cncnc4)c3)N=C(N)N3CCCN=C32)cc1 (stereo not shown) [Example 22, 8-(4-methoxyphenyl)-8-(3-pyrimidin-5-ylphenyl)-2,3,4,8-tetrahydroimidazo[1,5-a]pyrimidin-6-amine] | 60 | – | – | 136 to 140 | –
13 | NC1=NC(c2ccc(OC(F)(F)F)cc2)(c2cccc(-c3cnccc3F)c2)C2=NCCCN12 (stereo not shown) [Example 27, 8-[3-(4-fluoropyridin-3-yl)phenyl]-8-[4-(trifluoromethoxy)phenyl]-2,3,4,8-tetrahydroimidazo[1,5-a]pyrimidin-6-amine] | – | – | – | 83 to 97 | –
14 | N#CNC1=NC(c2ccc(OC(F)(F)F)cc2)(c2cccc(-c3cncnc3)c2)C2=NCCCN12 (stereo not shown) [Example 29, 8-(3-Pyrimidin-5-yl-phenyl)-8-(4-trifluoromethoxy-phenyl)-2,3,4,8-tetrahydro-imidazo[1,5-a]pyrimidin-6-yl-cyanamide] | – | – | – | 227 to 231 | –
15 | NC1=N[C@@](c2ccc(OC(F)(F)F)cc2)(c2cccc(-c3cncc(Cl)c3)c2)C2=NCCCN12 [Example 32A, (8S)-8-[3-(5-Chloropyridin-3-yl)phenyl]-8-[4-(trifluoromethoxy)-phenyl]-2,3,4,8-tetrahydroimidazo[1,5-a]pyrimidin-6-amine] | – | 0.272 | 0.029 | – | –
16 | NC1=N[C@](c2ccc(OC(F)(F)F)cc2)(c2cccc(-c3cncc(Cl)c3)c2)C2=NCCCN12 [Example 32B, (8R)-8-[3-(5-Chloropyridin-3-yl)phenyl]-8-[4-(trifluoromethoxy)-phenyl]-2,3,4,8-tetrahydroimidazo[1,5-a]pyrimidin-6-amine] | 34 | – | – | – | inhibition at 5 µM [2]: 19%
17 | NC1=N[C@@](c2ccc(OC(F)(F)F)cc2)(c2cccc(-c3cnccc3F)c2)C2=NCCCN12 [Example 33A, (8S)-8-[3-(4-fluoropyridin-3-yl)phenyl]-8-[4-(trifluoromethoxy)-phenyl]-2,3,4,8-tetrahydroimidazo[1,5-a]pyrimidin-6-amine] | – | 4 | 0.05 | – | –
18 | NC1=N[C@](c2ccc(OC(F)(F)F)cc2)(c2cccc(-c3cnccc3F)c2)C2=NCCCN12 [Example 33B, (8R)-8-[3-(4-fluoropyridin-3-yl)phenyl]-8-[4-(trifluoromethoxy)phenyl]-2,3,4,8-tetrahydroimidazo[1,5-a]pyrimidin-6-amine] | 25 | – | – | – | inhibition at 5 µM [2]: 43%
19 | NC1=NC(c2ccc(OC(F)(F)F)cc2)(c2cccc(-c3ccc[n+]([O-])c3F)c2)C2=NCCCN12 (stereo not shown) [Example 34, 8-[3-(2-Fluoro 1-oxy-pyridin-3-yl)-phenyl]-8-(4-trifluoromethoxy-phenyl)-2,3,4,8-tetrahydro-imidazo[1,5-a]pyrimidin-6-ylamine] | 25 | – | – | – | –
20 | NC1=NC(c2ccc(OC(F)(F)F)cc2)(c2cccc(-c3cccnc3F)c2)C2=NCCCCN12 (stereo not shown) [Example 36, 9-[3-(2-Fluoro-pyridin-3-yl)-phenyl]-9-(4-trifluoromethoxy-phenyl)-2,4,5,9-tetrahydro-3H-imidazo[1,5-a][1,3]diazepin-7-ylamine] | – | 7.32 | – | – | pIC50 [2]: 7.15
21 | NC1=NC(c2ccc(OC(F)(F)F)cc2)(c2cccc(-c3cccnc3F)c2)C2=NCCCCCN12 (stereo not shown) [Example 37, 1-[3-(2-Fluoro-pyridin-3-yl)-phenyl]-1-(4-trifluoromethoxy-phenyl)-1,4,5,6,7,8-hexahydro-2,3a,9-triaza-cyclopentacycloocten-3-ylamine] | – | 10.8 | – | – | –
22 | NC1=NC(c2cccc(-c3cccnc3F)c2)(c2ccc3c(c2)OCO3)C2=NCCCN12 (stereo not shown) [Example 40, 8-Benzo[1,3]dioxol-5-yl-8-[3-(2-fluoro-pyridin-3-yl)-phenyl]-2,3,4,8-tetrahydro-imidazo[1,5-a]pyrimidin-6-ylamine] | – | – | – | 106 to 119 | IC50 [2]: 0.16 µM
23 | CC1(C)CN2C(N)=NC(c3ccc(OC(F)(F)F)cc3)(c3cccc(-c4cccnc4F)c3)C2=N1 (stereo not shown) [Example 42, 7-[3-(2-Fluoropyridin-3-yl)phenyl]-2,2-dimethyl-7-(4-trifluoromethoxyphenyl)-2,7-dihydro-3H-imidazo[1,5-a]imidazol-5-ylamine] | 52 | – | 0.15 | – | –
24 | NC1=N[C@](c2ccc(OC(F)F)cc2)(c2cccc(-c3cccnc3F)c2)C2=NCCCN12 [Example 45A, (8R)-8-(4-Difluoromethoxy-phenyl)-8-[3-(2-fluoro-pyridin-3-yl)-phenyl]-2,3,4,8-tetrahydro-imidazo[1,5-a]pyrimidin-6-ylamine] | – | 0.7 | 0.01 | – | –
25 | NC1=N[C@@](c2ccc(OC(F)F)cc2)(c2cccc(-c3cccnc3F)c2)C2=NCCCN12 [Example 45B, (8S)-8-(4-Difluoromethoxy-phenyl)-8-[3-(2-fluoro-pyridin-3-yl)-phenyl]-2,3,4,8-tetrahydro-imidazo[1,5-a]pyrimidin-6-ylamine] | 60 | – | – | – | inhibition at […] ([2]; at 2.5 uM): 49%
